Literature values in patent US20070281957A1, “Crystalline Forms of Levorphanol” (Mallinckrodt Inc., priority 2006, published 2007).

Key:
[1] = levorphanol free base, known physical property
[2] = levorphanol free base, known physical property; remark: listed apart in the source

CN1CC[C@]23CCCC[C@H]2[C@H]1Cc1ccc(O)cc13 [Levorphanol, 3-Hydroxy-N-methylmorphinan]
Water solubility (at 25° C.) [1]: 1840 µg/mL
Vapor pressure (at 25° C.) [2]: 1.04 × 10^−6 mmHg
